Data set [1] can be described thus: Pharmacokinetics in mice, intraperitoneal. Type of data set: in vivo. The conditions noted are these: C57Bl6/N, mouse, plasma, 30 mg kg^−1, ip, male mice. On the procedure: Three mice per time point were anesthetized with isoflurane and aliquots taken from the retroorbital sinus using sampling heparinated tubes (4 °C) at 10, 20, 30 min, 1, 2 and 4 h after administration of a single dose of ligands. The blood samples were centrifuged (5,000g, 15 min) for plasma separation. Plasma samples were thawed on ice. Aliquots of 50 μl were precipitated with 450 μl of ice-cold acetonitrile containing (R)-N-[3-(1-Hydroxycarbamoylmethyl-2-naphthalen-2-yl-ethyl)-3H-[1,2,3]triazol-4-ylmethyl]-benzamide (0.5 μM) used as internal standard. The samples were vigorously mixed with a vortex and centrifuged at 10,000 r.p.m. at 4 °C for 10 min, and the supernatants were transferred into tubes for LC−MS−MS analysis (Supplementary Table 2). Spiked standard solutions (10, 50, 100, 500, 1,000, 5,000, 10,000 and 50,000 nM) were prepared the same way. The protocol was approved by the ethical comitee CEEA Nord Pas de Calais (CEEA75).

In another data set the target is T1, Recombinant human MMP-1 (Homo sapiens, UniProt P03956).
T1 construct: host or cells: E. coli
T1 sequence (P03956 100-469): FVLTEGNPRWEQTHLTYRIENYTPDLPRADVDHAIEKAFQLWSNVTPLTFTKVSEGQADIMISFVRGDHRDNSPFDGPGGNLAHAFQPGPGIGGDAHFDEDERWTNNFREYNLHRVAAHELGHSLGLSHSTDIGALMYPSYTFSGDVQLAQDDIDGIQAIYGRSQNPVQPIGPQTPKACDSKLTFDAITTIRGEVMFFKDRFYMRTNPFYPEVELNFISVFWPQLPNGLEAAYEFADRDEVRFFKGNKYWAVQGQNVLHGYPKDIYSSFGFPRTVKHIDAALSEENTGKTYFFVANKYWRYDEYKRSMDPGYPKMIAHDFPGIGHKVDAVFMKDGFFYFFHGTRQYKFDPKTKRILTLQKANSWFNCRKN
The data set is described as follows: Matrix metalloprotease 1 inhibition (CEREP). To be noted: means of two experiments minimum, s.d.±10%; read-out: Selectivity IC50 hMMP-1. In kind it is biochemical. On the procedure: Briefly, human NEP (R&D Systems; 200 ng ml^−1) was incubated 10 min at room temperature with compound in Hepes 50 mM, NaCl 100 mM, pH 7.4 and the enzymatic reaction started by adding the substrate (final concentration 200 μM). […] Briefly, human ACE (R&D Systems) was incubated 10 min at room temperature with compound in Tris 50 mM 1% NaCl pH 7.4 and the enzymatic reaction is started by adding the substrate (final concentration 300 μM). […] In vitro activity was assayed at CEREP.SA as follows.

Data set [2] in a line: LogD measurement octanol/PBS pH 7.4. In kind it is physicochemical. To be noted: read-out: Logd7.4. On the procedure: Ten microlitre of a 10 mM solution in DMSO of the compound are diluted either in 490 μl of PBS pH 7.4 or in organic solvent MeOH in a 700 μl-microtube (in triplicate). The tubes are gently shaken 24 h at room temperature, then centrifuged for 5 min at 4,000 r.p.m. The mixtures are filtered over 0.45 μm filters (Millex-LH Millipore). Twenty microlitre of sample are diluted in 180 μl of MeOH. The solubility is determined by the ratio of mass signal area PBS/ organic solvent. Forty microlitre of a 10 mM solution in DMSO of the compound were diluted in 1.960 ml of a 1/1 octanol /PBS at pH 7.4 mixture. The mixture was gently shaken 2 h at room temperature. Twenty microlitre of each phase was diluted in 480 μl of MeOH and analysed by LC–MS. Each compound is tested in triplicate. Log D was determined as the logarithm of the ratio of concentration of product in octanol and PBS respectively, determined by mass signals.

The nature of the next data set: Microsomal stability. Type of data set: in vitro ADME. To be noted: male, CD-1, pH 7.4, mouse liver microsomes, read-out: Microsomal stability m (t1/2). On the procedure:
Male mouse (CD-1) liver microsomes (BD Gentest) were used. All incubations were performed in duplicate in a shaking water bath at 37 °C. The incubation mixtures contained 1 μM compound with 1% methanol used as a vehicle, mouse liver microsomes (0.6 mg of microsomal protein per mL), 5 mM MgCl2, 1 mM NADP, 5 mM glucose 6-phosphate, 0.4 U ml^−1 glucose 6-phosphate dehydrogenase, and 50 mM potassium phosphate buffer (pH 7.4) in a final volume of 1.5 ml. Samples were taken at 5, 10, 20, 30 and 40 min after microsome addition, and reactions stopped by adding ice-cold acetonitrile containing 1 μM internal standard (four volumes). Centrifugation of the samples for 10 min at 10,000g and 4 °C allowed to pellet precipitated microsomal proteins, and supernatant was subjected LC−MS/MS analysis, in acetonitrile containing 1 μM internal standard. Each compound was quantified by converting the corresponding analyte/internal standard peak area ratios to percentage drug remaining, using the initial ratio values in control incubations as 100%. Propranolol, known as a high hepatic clearance drug in rodents, was used as a quality-control compound for the microsomal incubations. […] The slope of the linear regression from log percentage remaining versus incubation time relationships (-k) was used in the conversion to in vitro t1/2 values by: t1/2=−0.693/k.
For orientation: Liver microsomes are a subcellular fraction often used to study metabolism.

A word on the Tmax: it is the time at which the peak concentration occurs. By Cmax is commonly meant the maximum level reached in the sampled fluid or tissue. The term IC50 denotes the concentration that inhibits the measured activity by half.

Where “and” joins values, the source holds several entries; their conditions need not be identical. Equal entries are not always repeated.

With `O=C(C[C@@H](Cc1ccc2ccccc2c1)n1cc(CNC(=O)c2ccc(F)cc2)nn1)NO` [Compound 1], in data set [1], the Tmax stood at 10 min and the half-life turned out to be 80 min. In addition, in data set [1] (read-out: AUC0→4h), the AUC(0-t) was determined as 4270 ng·h/mL. Further, the Cmax in data set [1] (DMSO solution) is 4100 ng/mL and 9.2 µM. For the same compound, the half-maximal inhibitory concentration (IC50) on Recombinant human MMP-1 is 10 µM. Further, the logD in data set [2] was 2.2. The half-life at 1 μM in the data set “Microsomal stability” is 20 min.
